How the values were obtained:
[1] = system: human cerebral artery rings; assay: Prostanoid agonist effects on isolated human cerebral artery rings (organ bath, isometric tension); type: cell-based; settings: for effect on human cerebral artery rings contracted with phenylephrine: smaller diameter vessels, phenylephrine (1 µM), GR32191 (1 µM) present to block TP-receptors, Figures 3-5
Protocol: (§1) Sections of cerebral artery were removed from different regions of preparations of human cerebral vasculature containing an intact circle of Willis. Intact rings of this cerebral artery, 2-3mm in length, were set up under isometric conditions in 10 ml organ baths under an initial tension of 1g. All tissues were maintained at 37°C and gassed constantly with 95% O2 / 5% CO2. Following a 90 min equilibration period all tissues were challenged with phenylephrine (1 µM), to determine tissue viability. Once a stable contraction had been obtained, tissues were exposed to a range of prostanoid receptor agonists, in the absence or presence of receptor antagonists, to determine the functional role of prostanoid receptors in maintaining arterial tone.

pulmonary artery = assay: Effect of PGE2 on pre-contracted pulmonary artery rings; type: cell-based, human; settings: tone induced with U-46619 (10-100nM), n=3 donors; cicaprost 0.1-1µM
Protocol: (§2) Rings (2-4mm internal diameter) were prepared from sections of pulmonary or coronary artery (n=3 each). They were mounted in organ baths under isometric conditions, in gassed Krebs solution (containing indomethacin) at 37°C, and 1-1.5g initial tone.
(§3) After at least 60min equilibration, tone was induced with U-46619 (10-100nM) in pulmonary artery or either phenylephrine (1-10µM) or endothelin-1 (-7M) in coronary artery.

coronary artery = assay: Effect of PGE2 on pre-contracted coronary artery rings; type: cell-based, human; settings: for relaxation of coronary artery: tone induced with phenylephrine (1-10µM) or endothelin-1, n=3 donors, cicaprost 0.1-1µM
Protocol: as §2, §3

EP4 receptor = molecular target: T1, EP4 receptor (Homo sapiens, UniProt P35408); assay: Antagonism of PGE2-mediated relaxation of phenylephrine pre-contracted middle cerebral artery rings; type: cell-based; settings: 10 mM AH23848, 45 mins preincubation, P=0.004, 2 tailed T-Test
T1 construct: Intact rings of this cerebral artery, 2-3mm in length, were set up under isometric conditions; from tissue; host or cells: human middle cerebral artery rings (one donor)
Protocol: as §1
To test the effect of the EP4 receptor antagonist AH23848, cerebral rings were preincubated for 45 mins with 10 mM AH23848.

EP4 receptors = molecular target: T2, EP4 receptors (Sus scrofa, UniProt I3LLK4); settings: antagonism of PGE2-induced relaxation of piglet saphenous vein through blockade of EP4 receptors; cited from earlier work
T2 construct: providing a natural source of the receptors, such as piglet saphenous vein; host or cells: piglet saphenous vein rings (tissue, endogenous receptor)

EP1 = molecular target: T3, EP1 (Homo sapiens, UniProt P34995); settings: cited from earlier work
T3 sequence (P34995 1-402): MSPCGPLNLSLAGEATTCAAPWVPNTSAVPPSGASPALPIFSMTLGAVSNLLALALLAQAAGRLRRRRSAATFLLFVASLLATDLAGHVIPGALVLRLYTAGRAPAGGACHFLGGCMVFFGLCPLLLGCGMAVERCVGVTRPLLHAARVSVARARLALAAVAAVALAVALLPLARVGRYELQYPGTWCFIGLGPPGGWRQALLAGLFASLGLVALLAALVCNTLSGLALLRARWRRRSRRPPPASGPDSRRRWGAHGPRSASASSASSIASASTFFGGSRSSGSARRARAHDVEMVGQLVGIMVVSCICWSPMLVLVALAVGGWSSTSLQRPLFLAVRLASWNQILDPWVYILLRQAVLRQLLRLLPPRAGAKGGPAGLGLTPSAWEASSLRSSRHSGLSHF

EP2 = EP2 (Homo sapiens, UniProt P43116); settings: cited from earlier work
EP3 = molecular target: T4, EP3 (Homo sapiens, UniProt P43115); settings: cited from earlier work
T4 sequence (P43115 1-390): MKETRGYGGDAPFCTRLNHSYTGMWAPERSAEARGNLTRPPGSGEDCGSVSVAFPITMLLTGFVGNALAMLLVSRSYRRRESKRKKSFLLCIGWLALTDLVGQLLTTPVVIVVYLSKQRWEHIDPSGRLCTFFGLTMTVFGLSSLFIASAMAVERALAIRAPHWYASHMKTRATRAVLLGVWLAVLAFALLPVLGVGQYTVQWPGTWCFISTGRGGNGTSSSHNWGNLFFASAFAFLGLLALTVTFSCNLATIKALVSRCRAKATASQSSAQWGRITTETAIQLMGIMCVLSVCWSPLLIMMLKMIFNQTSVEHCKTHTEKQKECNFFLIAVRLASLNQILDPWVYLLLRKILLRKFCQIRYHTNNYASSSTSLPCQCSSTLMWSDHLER

EP2, sequence (P43116 whole entry): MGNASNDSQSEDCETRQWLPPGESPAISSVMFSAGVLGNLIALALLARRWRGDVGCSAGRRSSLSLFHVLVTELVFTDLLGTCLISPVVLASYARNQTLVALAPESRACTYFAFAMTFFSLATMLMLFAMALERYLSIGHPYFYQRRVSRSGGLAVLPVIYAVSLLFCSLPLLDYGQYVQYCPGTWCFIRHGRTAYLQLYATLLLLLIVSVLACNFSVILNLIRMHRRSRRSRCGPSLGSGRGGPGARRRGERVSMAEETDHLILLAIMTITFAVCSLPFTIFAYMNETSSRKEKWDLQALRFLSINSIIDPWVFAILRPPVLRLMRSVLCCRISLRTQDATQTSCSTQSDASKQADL
T2 sequence (I3LLK4 1-489): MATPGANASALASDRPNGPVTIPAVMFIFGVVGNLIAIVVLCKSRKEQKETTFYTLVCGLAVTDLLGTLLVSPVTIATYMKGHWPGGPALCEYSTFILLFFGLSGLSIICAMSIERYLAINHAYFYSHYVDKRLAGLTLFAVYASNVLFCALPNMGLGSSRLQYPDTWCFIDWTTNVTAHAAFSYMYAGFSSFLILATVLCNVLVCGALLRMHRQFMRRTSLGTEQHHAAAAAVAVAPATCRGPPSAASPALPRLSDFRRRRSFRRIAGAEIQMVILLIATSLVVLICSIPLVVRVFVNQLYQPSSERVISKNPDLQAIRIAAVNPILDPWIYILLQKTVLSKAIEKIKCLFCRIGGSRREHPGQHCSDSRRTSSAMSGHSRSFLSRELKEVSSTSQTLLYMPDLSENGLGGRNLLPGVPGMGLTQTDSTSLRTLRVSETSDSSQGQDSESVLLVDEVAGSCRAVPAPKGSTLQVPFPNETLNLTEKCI
T1 sequence (P35408 whole entry): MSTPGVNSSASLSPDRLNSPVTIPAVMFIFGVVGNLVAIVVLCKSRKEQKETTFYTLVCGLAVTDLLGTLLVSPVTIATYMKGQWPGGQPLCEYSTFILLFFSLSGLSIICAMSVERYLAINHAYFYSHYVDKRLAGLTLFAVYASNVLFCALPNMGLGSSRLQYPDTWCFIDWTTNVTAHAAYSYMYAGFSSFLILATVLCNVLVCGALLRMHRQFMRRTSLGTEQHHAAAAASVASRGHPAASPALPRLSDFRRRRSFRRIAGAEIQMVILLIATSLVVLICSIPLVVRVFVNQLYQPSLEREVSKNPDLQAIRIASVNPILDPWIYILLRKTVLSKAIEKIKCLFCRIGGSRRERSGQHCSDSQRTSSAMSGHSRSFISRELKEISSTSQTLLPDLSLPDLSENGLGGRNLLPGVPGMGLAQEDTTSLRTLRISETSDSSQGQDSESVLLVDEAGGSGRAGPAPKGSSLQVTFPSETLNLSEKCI

## CCCCC[C@H](O)/C=C/[C@H]1[C@H](O)CC(=O)[C@@H]1C/C=C\CCCC(=O)O [PGE2, prostaglandin E2]
[1]; 5-HT (300nM and 1µM), Figure 2B, 2C
  relaxation of cerebral artery rings pre-contracted with 5-HT: maximal or near maximal relaxation
[1]; U46619 (100nM), Figure 2A
  relaxation of cerebral artery rings pre-contracted with U46619: maximal or near maximal relaxation
[1]; cerebral blood vessel pre-contracted with phenylephrine, Figure 1
  concentration at which maximum relaxation occurs: below 10^-6 M
[1]; human cerebral artery, internal diameter > 1mm
  effect on larger vessels: concentration-related contraction
[1]; pre-contracted human cerebral blood vessels, internal diameter < 1mm
  effect on smaller vessels: potent concentration-related relaxation
Pulmonary artery
  relaxation of pulmonary artery: did not cause relaxation
Coronary artery; pre-contracted coronary artery, likely due to activation of EP3 receptors
  contraction of coronary artery: A small contraction
Coronary artery
  relaxation of coronary artery: did not cause relaxation

## CCC#CC[C@H](C)[C@H](O)C#C[C@@H]1[C@H]2C/C(=C/COCC(=O)O)C[C@H]2C[C@H]1O [cicaprost]
[1]
  effect on human cerebral artery rings contracted with phenylephrine: induced relaxation
Pulmonary artery
  relaxation of pulmonary artery: induced a relaxation in all preparations
Coronary artery
  relaxation of coronary artery: induced a relaxation in all preparations

## O=C(O)CCC=CCCC1C(OCc2ccc(-c3ccccc3)cc2)CC(=O)C1N1CCOCC1 (centres unmarked) [AH23848]
EP4 receptor
  shift in the PGE2-mediated relaxation: significant rightward shift
EP4 receptors
  pA2: 5.4
EP1
  effect on EP receptor subtype EP1: no effect
EP2
  effect on EP receptor subtype EP2: no effect
EP3
  effect on EP receptor subtype EP3: no effect

## O=C(O)CCC/C=C\C[C@H]1[C@@H](OCc2ccc(-c3ccccc3)cc2)CC(=O)[C@@H]1N1CCOCC1 [AH22921]
EP4 receptors
  pA2: 5.3
EP1
  effect on EP receptor subtype EP1: no effect
EP2
  effect on EP receptor subtype EP2: no effect
EP3
  effect on EP receptor subtype EP3: no effect

## CCCCC[C@H](O)/C=C/[C@@H]1[C@@H](C/C=C\CCCC(=O)O)[C@@H](O)C[C@H]1O [PGF2α]
[1]
  effect on human cerebral artery rings contracted with phenylephrine: without effect

## CCCCC[C@H](O)/C=C/[C@H]1C(=O)C[C@H](O)[C@@H]1C/C=C\CCCC(=O)O [PGD2]
[1]
  effect on human cerebral artery rings contracted with phenylephrine: without effect

## CC#CCC(C)[C@H](O)/C=C/[C@@H]1[C@H]2C/C(=C/CCCC(=O)O)C[C@H]2C[C@H]1O (some centres unmarked) [Iloprost]
[1]
  effect on human cerebral artery rings contracted with phenylephrine: induced relaxation

Reference: patent EP1267867B1, “USE OF PROSTANOID EP4 RECEPTOR ANTAGONISTS FOR THE TREATMENT OF HEADACHE AND ASSAYS FOR SUCH ANTAGONISTS” (ASTERAND UK LIMITED, priority 2000, dated 2001)
